Peptide text beside a SMILES is read from it.
Parameters: AUC: unit not given beside the values
Experimental: The pH of simulated gastric fluid (SGF, 0.15 M NaCl, pH 2.5) was increased to 7.5 with […] (40 mM), and the following compounds were added to adjust the pH to 6.8 and simulate a duodenal-jejunal environment and create simulated small intestinal fluid (SIF): (i) a bile salt mixture containing equimolar quantities (0.125 M) of sodium taurocholate and glycodeoxycholic acid in NaHC03 (1 M), (ii) solutions of pancreatin from porcine pancreas (9 mg/mL) in water was prepared and added at approximately physiological ratios. The pH was adjusted to 6.8 with HCl (0.1 M). Peptides were dissolved in SIF at a final peptide concentration of 50 µM. Aliquots (1 mL) were prepared for sampling at different time points. Simulated intestinal digestion was carried out at 37°C, and aliquots (1 mL) were taken at 0, 5, 15, and 60 min after the start of the experiment. After peptide hydrolysis, digestive enzymes were inactivated at 95°C for 15 min and samples were cooled immediately on ice water and stored at -20°C until further analysis.
Quantification of dipeptides derived from digestion were performed using a liquid chromatography multiple reaction ion monitoring-mass spectrometry (LC-MRM-MS) method as described van Platerink CJ, Janssen HG, Horsten R, Haverkamp J. Quantification of ACE inhibiting peptides in human plasma using high performance liquid chromatography-mass spectrometry. J Chromatogr B Analyt Technol Biomed Life Sci 2006,830:151-157. Peptide separation was performed on an Atlantis Hilic Silica column (2.1 x 150 mm, 3 µm particle size) and a Micromass Quattro-II (Milford MA, USA) with HP1100LC system (Hewlett-Packard, USA). The gradient started at 100% 0.1 % trifluoro acetic acid in Milli-Q water and ended at 70% 0.1% trifluoro acetic acid in acetonitrile. To support the ionization, a 70/30 mixture of propionic acid and propanol-2 was added postcolumn at a flow rate of […]. All analyses were conducted on an Alliance 2795 HPLC (Waters, Milford MA, USA) combined with a Quattro Premier triple quadrupole mass spectrometer from the same supplier.
An intestinal stability data set consisting of 228 dipeptides was generated based on the results from the simulated digestion experiments. The area under the time - peptide concentration curve was calculated and used for further analysis and modelling. An ACE inhibitory dipeptide database consisting of 228 dipeptides was constructed.
For each peptide the relative stability (in % of initial dipeptide concentration) was plotted against time and the area under the curve (AUC) was calculated.

Question: For `N[C@@H](Cc1c[nH]c2ccccc12)C(=O)N[C@@H](CC(=O)O)C(=O)O` [WD] (H-Trp-Asp-OH), which “intestinal stability (in words)” value is on record?
Answer: The value was “high intestinal stability”.

Question: With `C[C@@H](O)[C@H](NC(=O)[C@@H](N)Cc1c[nH]c2ccccc12)C(=O)O` [WT] (H-Trp-Thr-OH) as the compound, how does the “intestinal stability (in words)” value read?
Answer: The value was “high intestinal stability”.

Question: For `N[C@@H](Cc1c[nH]c2ccccc12)C(=O)N[C@@H](CO)C(=O)O` [WS] (H-Trp-Ser-OH), which “intestinal stability (in words)” value is on record?
Answer: Its value is “high intestinal stability”.

Question: With `C[C@H](NC(=O)[C@@H](N)CS)C(=O)O` [CA] (H-Cys-Ala-OH) as the compound, how does the AUC read?
Answer: Its AUC is 0.

Question: Which “intestinal stability (in words)” value does the source give for `C[C@@H](O)[C@H](NC(=O)[C@@H](N)CS)C(=O)O` [CT] (H-Cys-Thr-OH) here?
Answer: The value was “high intestinal stability”.

Question: Which “intestinal stability (in words)” value does the source give for `C[C@@H](O)[C@H](NC(=O)[C@@H](N)CC(=O)O)C(=O)O` [DT] (H-Asp-Thr-OH) here?
Answer: The value was “high intestinal stability”.

From patent EP2161028B1, “Food product comprising dipeptides having antihypertensive properties” (Unilever N.V., priority 2008, dated 2011)
